Where two headings read alike, the source gives them in different places.
Test system: vesicular stomatitis virus particles (VSV) pseudotyped with EboV Zaire GP
Assay: microbe, parasite or virus in culture
Assay type: cell-based

Compound | IC50 (Vesicular stomatitis virus) [nM] | IC50 [nM]
CCC1(CC)CC1C(=O)NCC(=O)N1CCN(Cc2cc(Cl)ccc2O)CC1 (stereo not shown) [Compound 1399, N-(2-(4-(5-Chloro-2-hydroxybenzyl)piperazin-1-yl)-2-oxoethyl)-2,2-diethylcyclopropane-1-carboxamide] | 220 | –
O=C(CC1CCC(F)(F)CC1)NCC(=O)N1CCN(Cc2cc(Br)ccc2O)CC1 [Compound 1400, N-(2-(4-(5-Bromo-2-hydroxybenzyl)piperazin-1-yl)-2-oxoethyl)-2-(4,4-difluorocyclohexyl)acetamide] | 670 | –
O=C(CC1CCC(F)(F)CC1)NCC(=O)N1CCN(Cc2cc(Cl)cc(Cl)c2O)CC1 [Compound 1401, N-(2-(4-(3,5-Dichloro-2-hydroxybenzyl)piperazin-1-yl)-2-oxoethyl)-2-(4,4-difluorocyclohexyl)acetamide] | 3700 | –
O=C(CC1CCC(F)(F)CC1)NCC(=O)N1CCN(Cc2cc(Cl)cc(F)c2O)CC1 [Compound 1402, N-(2-(4-(5-Chloro-3-fluoro-2-hydroxybenzyl)piperazin-1-yl)-2-oxoethyl)-2-(4,4-difluorocyclohexyl)acetamide] | 2900 | –
O=C(CC1CCC(F)(F)CC1)NCC(=O)N1CCN(Cc2cc(Cl)ccc2O)CC1 [Compound 1403, N-(2-(4-(5-Chloro-2-hydroxybenzyl)piperazin-1-yl)-2-oxoethyl)-2-(4,4-difluorocyclohexyl)acetamide] | 190 to 730 | –
O=C(NCC(=O)N1CCN(Cc2cc(Cl)cc(F)c2O)CC1)C1CC12CCC(F)(F)CC2 (stereo not shown) [Compound 1404, N-(2-(4-(5-chloro-3-fluoro-2-hydroxybenzyl)piperazin-1-yl)-2-oxoethyl)-6,6-difluorospiro[2.5]octane-1-carboxamide] | 630 | –
O=C(NCC(=O)N1CCN(Cc2cc(Cl)cc3cccnc23)CC1)C1CC12CCC(F)(F)CC2 (stereo not shown) [Compound 1405, N-(2-(4-((6-Chloroquinolin-8-yl)methyl)piperazin-1-yl)-2-oxoethyl)-6,6-difluorospiro[2.5]octane-1-carboxamide] | 70 to 260 | –
O=C(CC1CCC(F)(F)CC1)NCC(=O)N1CCN(Cc2cc(Cl)cc3cn[nH]c23)CC1 [Compound 1406, N-(2-(4-((5-Chloro-JH-indazol-7-yl)methyl)piperazin-1-yl)-2-oxoethyl)-2-(4,4-difluorocyclohexyl)acetamide] | 460 | –
Nc1c(Cl)cccc1CN1CCN(C(=O)CNC(=O)C2CC23CCC(F)(F)CC3)CC1 (stereo not shown) [Compound 1407, N-(2-(4-(2-Amino-3-chlorobenzyl)piperazin-1-yl)-2-oxoethyl)-6,6-difluorospiro[2.5]octane-1-carboxamide] | 230 to 500 | –
O=C(CC1CCC(F)(F)CC1)NCC(=O)N1CCN(Cc2ccc(F)c(Cl)c2F)CC1 [Compound 1408] | 4000 | –
Nc1ccc(Cl)cc1CN1CCN(C(=O)CNC(=O)C2CC23CCC3)CC1 (stereo not shown) [Compound 1409, N-(2-(4-(2-Amino-5-chlorobenzyl)piperazin-1-yl)-2-oxoethyl)spiro[2.3]hexane-1-carboxamide] | – | 2900
Nc1ccc(Cl)cc1CN1CCN(C(=O)CNC(=O)C2CC23CCCC3)CC1 (stereo not shown) [Compound 1410, N-(2-(4-(2-Amino-5-chlorobenzyl)piperazin-1-yl)-2-oxoethyl)spiro[2.4]heptane-1-carboxamide] | – | 220 to 490
CCC1(CC)CC1C(=O)NCC(=O)N1CCN(Cc2cc(Cl)ccc2N)CC1 (stereo not shown) [Compound 1411, N-(2-(4-(2-amino-5-chlorobenzyl)piperazin-1-yl)-2-oxoethyl)-2,2-diethylcyclopropane-1-carboxamide] | 140 | –
O=C(NCC(=O)N1CCN(Cc2cccc3cccnc23)CC1)C1CC12CCC(F)(F)CC2 (stereo not shown) [Compound 1420, 6,6-Difluoro-N-(2-oxo-2-(4-(quinolin-8-ylmethyl)piperazin-1-yl)ethyl)spiro[2.5]octane-1-carboxamide] | 490 | –
O=C(NCC(=O)N1CCN(Cc2cc(Cl)cc3cn[nH]c23)CC1)C1CC12CCC(F)(F)CC2 (stereo not shown) [Compound 1421, N-(2-(4-((5-Chloro-JH-indazol-7-yl)methyl)piperazin-1-yl)-2-oxoethyl)-6,6-difluorospiro[2.5]octane-1-carboxamide] | > 5000 | –
O=C(CC1CCC(F)(F)CC1)NCC(=O)N1CCN(Cc2cc(Cl)cc3cccnc23)CC1 [Compound 1422, N-(2-(4-((6-Chloroquinolin-8-yl)methyl)piperazin-1-yl)-2-oxoethyl)-2-(4,4-difluorocyclohexyl)acetamide] | 360 | –
CC1(CC(=O)NCC(=O)N2CCN(Cc3cc(Cl)cc4cccnc34)CC2)CCOCC1 [Compound 1424] | 2800 | –
O=C(NCC(=O)N1CCN(Cc2cc(Cl)ccc2O)CC1)C1CC1c1ccc(F)cc1 (stereo not shown) [Compound 1425, N-(2-(4-(5-Chloro-2-hydroxybenzyl)piperazin-1-yl)-2-oxoethyl)-2-(4-fluorophenyl)cyclopropane-1-carboxamide] | 3400 | –
O=C(CC1CCC(F)(F)CC1)NCC(=O)N1CCN(Cc2cccc3ccncc23)CC1 [Compound 1427] | 2450 | –
O=C(CC1CCC(F)(F)CC1)NCC(=O)N1CCN(Cc2cccc3ncccc23)CC1 [Compound 1428, 2-(4,4-Difluorocyclohexyl)-N-(2-oxo-2-(4-(quinolin-5-ylmethyl)piperazin-1-yl)ethyl)acetamide] | > 5000 | –
O=C(CC1CCC(F)(F)CC1)NCC(=O)N1CCN(Cc2cc(F)cc3cccnc23)CC1 [Compound 1429, 2-(4,4-Difluorocyclohexyl)-N-(2-(4-((6-fluoroquinolin-8-yl)methyl)piperazin-1-yl)-2-oxoethyl)acetamide] | 950 | –
Cc1ccc(Cl)cc1CN1CCN(C(=O)CNC(=O)C2CC23CCC(F)(F)CC3)CC1 (stereo not shown) [Compound 1431, N-(2-(4-(5-Chloro-2-methylbenzyl)piperazin-1-yl)-2-oxoethyl)-6,6-difluorospiro[2.5]octane-1-carboxamide] | 550 | –

Compound | IC50 (Vesicular stomatitis virus) [nM] | IC50 [nM]
O=C(CC1CCC(F)(F)CC1)NCC(=O)N1CCN(Cc2cc(Cl)cc(Oc3ccncc3)c2)CC1 [Compound 1432, N-(2-(4-(3-Chloro-5-(pyridin-4-yloxy)benzyl)piperazin-1-yl)-2-oxoethyl)-2-(4,4-difluorocyclohexyl)acetamide] | 185 | –
[2H]C([2H])(c1cc(Cl)cc2cc[nH]c12)N1CCN(C(=O)CNC(=O)CC2CCC(F)(F)CC2)CC1 [Compound 1433, N-(2-(4-((5-Chloro-JH-indol-7-yl)methyl-d2)piperazin-1-yl)-2-oxoethyl)-2-(4,4-difluorocyclohexyl)acetamide] | > 5000 | –
COC(=O)c1cccc(-c2cc(Cl)cc(CN3CCN(C(=O)CNC(=O)CC45CC6CC(C4)C(C6)C5)CC3)c2)c1 [Compound 1441] | 248 | –
CC(=O)N1CCC(Oc2cc(F)cc(CN3CCN(C(=O)CNC(=O)C4CC45CCC(F)(F)CC5)CC3)c2)CC1 (stereo not shown) [Compound 1442] | 600 | –
CS(=O)(=O)c1ccc(COc2ccc(F)cc2CN2CCN(C(=O)CNC(=O)CC34CC5CC(CC(C5)C3)C4)CC2)cc1 [Compound 1443] | 4.5 | –
O=C(CC12CC3CC(C1)C(C3)C2)NCC(=O)N1CCN(Cc2cc(F)ccc2OCc2ccc3nonc3c2)CC1 [Compound 1444] | 25 | –
CC(=O)Nc1ccc(COc2ccc(F)cc2CN2CCN(C(=O)CNC(=O)CC34CC5CC(C3)C(C5)C4)CC2)cc1 [Compound 1445] | 710 | –
O=C(CC1CCC(F)(F)CC1)NCC(=O)N1CCN(Cc2cccc(Oc3ccccn3)c2)CC1 [Compound 1451] | > 5000 | –
CC(=O)N1CCCC(Oc2cc(F)cc(CN3CCN(C(=O)CNC(=O)C4CC45CCC(F)(F)CC5)CC3)c2)C1 (stereo not shown) [Compound 1453] | > 5000 | –
CS(=O)(=O)c1ccc(COc2ccc(F)cc2CN2CCN(C(=O)CNC(=O)CC3CCC(F)(F)CC3)CC2)cc1 [Compound 1455] | 40 | –
O=C(CC1CCC(F)(F)CC1)NCC(=O)N1CCN(Cc2cc(F)ccc2OCc2ccc3nonc3c2)CC1 [Compound 1456] | 190 | –
CS(=O)(=O)c1ccc(Oc2cc(F)cc(CN3CCN(C(=O)CNC(=O)C4CC45CCC(F)(F)CC5)CC3)c2)cc1 (stereo not shown) [Compound 1459] | 200 | –
CS(=O)(=O)c1ccc(Oc2cc(F)cc(CN3CCN(C(=O)CNC(=O)CC4CCC(F)(F)CC4)CC3)c2)cc1 [Compound 1460] | > 1000 | –
CS(=O)(=O)c1ccc(Oc2cc(Cl)cc(CN3CCN(C(=O)CNC(=O)C4CC45CCC(F)(F)CC5)CC3)c2)cc1 (stereo not shown) [Compound 1461] | 150 | –
CS(=O)(=O)c1ccc(Oc2cc(Cl)cc(CN3CCN(C(=O)CNC(=O)CC4CCC(F)(F)CC4)CC3)c2)cc1 [Compound 1462] | > 1000 | –
[2H]C([2H])(c1cc(Cl)ccc1NCC)N1CCN(C(=O)CNC(=O)C2CC23CCC(F)(F)CC3)CC1 (stereo not shown) [Compound 1534] | 200 | –
CS(=O)(=O)c1ccc(COc2ccc(Cl)cc2CN2CCN(C(=O)CNC(=O)C3CC34CCCCC4)CC2)cc1 (stereo not shown) [Compound 1539, Spiro[2.5]octane-1-carboxylic acid (2-{4-[5-chloro-2-(4-methanesulfonyl-benzyloxy)-benzyl]-piperazin-1-yl}-2-oxo-ethyl)-amide] | 100 | –
[2H]C([2H])(c1cc(Cl)ccc1NCc1ccc(C(=O)OC)cn1)N1CCN(C(=O)CNC(=O)C2CC23CCC(F)(F)CC3)CC1 (stereo not shown) [Compound 1548, 6-{[4-Chloro-2-(4-{2-[(6,6-difluoro-spiro[2.5]octane-1-carbonyl)-amino]-acetyl}-piperazin-1-yl-di-deutero-methyl)-phenylamino]-methyl}-nicotinic acid methyl ester] | 7 | –
[2H]C([2H])(c1cc(Cl)ccc1NCc1ccc(C(=O)OC)nc1)N1CCN(C(=O)CNC(=O)C2CC23CCC(F)(F)CC3)CC1 (stereo not shown) [Compound 1549, 5-{[4-Chloro-2-(4-{2-[(6,6-difluoro-spiro[2.5]octane-1-carbonyl)-amino]-acetyl}-piperazin-1-yl-di-deutero-methyl)-phenylamino]-methyl}-pyridine-2-carboxylic acid methyl ester] | 50 | –
[2H]C([2H])(c1cc(Cl)ccc1NCc1cnco1)N1CCN(C(=O)CNC(=O)C2CC23CCC(F)(F)CC3)CC1 (stereo not shown) [Compound 1560] | 40 | –
[2H]C([2H])(c1cc(Cl)ccc1NCc1ccc(S(C)(=O)=O)c(F)c1)N1CCN(C(=O)CNC(=O)[C@@H]2CC23CCC(F)(F)CC3)CC1 [Compound 1561] | 8 | –
